# Target: T1, KACh channel (Rattus norvegicus, UniProt P48548+P63251)
# T1 sequence (P63251 1-501): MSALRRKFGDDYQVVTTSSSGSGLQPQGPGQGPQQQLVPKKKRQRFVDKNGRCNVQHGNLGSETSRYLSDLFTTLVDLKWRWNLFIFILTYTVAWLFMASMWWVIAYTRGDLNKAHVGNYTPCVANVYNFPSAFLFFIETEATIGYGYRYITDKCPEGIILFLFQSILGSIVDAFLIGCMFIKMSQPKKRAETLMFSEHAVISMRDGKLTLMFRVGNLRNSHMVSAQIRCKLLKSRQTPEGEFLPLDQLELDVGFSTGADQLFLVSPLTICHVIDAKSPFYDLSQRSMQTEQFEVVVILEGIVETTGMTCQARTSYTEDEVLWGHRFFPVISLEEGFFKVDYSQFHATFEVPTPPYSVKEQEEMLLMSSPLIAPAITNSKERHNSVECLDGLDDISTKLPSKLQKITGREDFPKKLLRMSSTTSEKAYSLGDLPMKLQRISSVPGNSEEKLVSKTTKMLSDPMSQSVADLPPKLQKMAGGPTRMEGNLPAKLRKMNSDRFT
# T1 sequence (P48548 1-419): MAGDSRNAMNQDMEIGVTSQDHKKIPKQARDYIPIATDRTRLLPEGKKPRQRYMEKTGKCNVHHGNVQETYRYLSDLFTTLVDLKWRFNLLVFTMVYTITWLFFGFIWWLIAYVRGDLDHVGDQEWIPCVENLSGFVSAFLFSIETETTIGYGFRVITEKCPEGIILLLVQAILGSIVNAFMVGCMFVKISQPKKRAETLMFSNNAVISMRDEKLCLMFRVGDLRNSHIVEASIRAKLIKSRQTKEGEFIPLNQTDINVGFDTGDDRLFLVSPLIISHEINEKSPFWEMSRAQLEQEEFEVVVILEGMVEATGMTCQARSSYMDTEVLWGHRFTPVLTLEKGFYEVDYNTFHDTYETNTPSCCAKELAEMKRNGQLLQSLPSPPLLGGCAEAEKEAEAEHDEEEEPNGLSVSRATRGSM
# Type: cell-based
# Conditions: K 1/2 (effect on ATP-dependent gating of KACh channel), atrial inside-out patches, 100 μM GTP and 4 mM ATP; lipid 0.1, 1, 3, 10 and 30 μM; n = 3 each
row,Compound,IC50
1,"CCCCCCCC(=O)OCC(CO)OC(=O)CCCCCCC (centres unmarked) [1,2-dioctanoylglycerol]",2.8 ± 0.4 µM
2,"CCCCCCCC/C=C\CCCCCCCC(=O)OCC(CO)OC(=O)CCCCCCC/C=C\CCCCCCCC (centres unmarked) [1,2-dioleoylglycerol]",21 ± 3 µM
3,CCCCC/C=C\C/C=C\CCCCCCCC(=O)OCC(O)CO (centres unmarked) [1-monolinoleoylglycerol],8.4 ± 2.2 µM
4,CCCCCCCC/C=C\CCCCCCCC(=O)OCC(O)CO (centres unmarked) [1-monooleoylglycerol],42 ± 6 µM
5,CCCCCC/C=C\CCCCCCCC(=O)OCC(O)CO (centres unmarked) [1-monopalmitoleoylglycerol],52 ± 7 µM
6,CCCCCCCC/C=C\CCCCCCCC(=O)OCC(CO)OC(C)=O (centres unmarked) [1-oleoyl-2-acetylglycerol],22 ± 3 µM
7,CCCCCCCC/C=C\CCCCCCCC(=O)OC(CO)CO [2-monooleoylglycerol],48 ± 8 µM
8,"CC/C=C\C/C=C\C/C=C\C/C=C\C/C=C\C/C=C\CCC(=O)O [Docosahexaenoic acid [22:6 (n-3)], Docosahexaenoic acid]",1.4 ± 0.2 µM
9,"CC/C=C\C/C=C\C/C=C\C/C=C\C/C=C\CCCC(=O)O [Eicosapentaenoic acid [20:5 (n-3)], Eicosapentaenoic acid]",5.6 ± 2.2 µM
10,"CCCCCCCC/C=C/CCCCCCCC(=O)O [Elaidic acid [t-18:1 (n-9)], Elaidic acid]",21.6 ± 4.8 µM
11,"CCCCCC/C=C\CCCCCCCC(=O)O [Palmitoleic acid [16:1 (n-7)], Palmitoleic acid]",10.5 ± 2.4 µM

# Same assay, conditions: atrial inside-out patches, 100 μM GTP and 4 mM ATP; lipid 0.1, 1, 3, 10 and 30 μM; n = 3 each
row,Compound,K 1/2 (effect on ATP-dependent gating of KACh channel)
1,CCCCC/C=C\C/C=C\C/C=C\C/C=C\CCCC(=O)O[C@@H](CO)COC(=O)CCCCCCCCCCCCCCCCC [1-stearoyl-2-arachidonoyl-sn-glycerol],No effect
2,CCCCC/C=C\C/C=C\CCCCCCCC(=O)O[C@@H](CO)COC(=O)CCCCCCCCCCCCCCCCC [1-stearoyl-2-linoleoyl-sn-glycerol],No effect
3,"CCCCCCCC(=O)O [Caprylic acid (8:0), Caprylic acid]",No effect
4,CCCCCCCCCCCCCC=CC(O)C(CO)NC(C)=O (centres unmarked) [Ceramide (C-2)],No effect
5,OCC(O)CO [Glycerol],No effect
6,O=P(O)(O)OCC(O)CO (centres unmarked) [Glycerophosphate],No effect
7,CCCCC/C=C\C\C=C/C=C/C=C/[C@@H](SC[C@H](NC(=O)CC[C@H](N)C(=O)O)C(=O)NCC(=O)O)[C@@H](O)CCCC(=O)O [Leukotriene C4],No effect
8,"CCCCCCCCCCCCCCCC(=O)O [Palmitic acid (16:0), Palmitic acid]",No effect
9,CCCCCCCCCCCCCC(=O)O[C@@H]1[C@@H](C)[C@@]2(O)[C@@H](C=C(CO)C[C@]3(O)C(=O)C(C)=C[C@@H]23)[C@@H]2C(C)(C)[C@]12OC(C)=O [Phorbol myristate acetate],No effect
10,CCCCC[C@H](O)/C=C/[C@H]1[C@H](O)CC(=O)[C@@H]1CCCCCCC(=O)O [Prostaglandin E1],No effect
11,NCCCCNCCCN [Spermidine],No effect
12,NCCCNCCCCNCCCN [Spermine],No effect
13,"CCCCCCCCCCCCC/C=C/[C@@H](O)[C@@H](N)CO [Sphingosine (D-form), Sphingosine]",No effect
14,"CCCCCCCCCCCCCCCCCC(=O)O [Stearic acid (18:0), Stearic acid]",No effect

# Same assay, conditions: read-out: K 1/2 (effect on ATP-dependent gating of KACh channel); atrial inside-out patches, 100 μM GTP and 4 mM ATP; lipid 0.1, 1, 3, 10 and 30 μM; n = 3 each
row,Compound,IC50
1,CCCCC/C=C\C/C=C\C/C=C\C/C=C\CCCC(=O)OC [Arachidonic acid methyl ester],12 ± 3 µM
2,CCCCC/C=C\C/C=C\C/C=C\C/C=C\CCCCO [Arachidonyl alcohol],44 ± 7 µM
3,"CCCCC/C=C/C/C=C/CCCCCCCC(=O)O [Linoelaidic acid [t,t-18:2 (n-6)], Linoelaidic acid]",3.2 ± 0.6 µM
4,"CCCCCCCC/C=C\CCCCCCCCCCCCCC(=O)O [Nervonic acid [24:1 (n-9)], Nervonic acid]",12.5 ± 2.1 µM

# Reference: article PMC2217204 (The Journal of General Physiology, 2000)
